Like-named read-outs stand apart in the source and are kept apart here.
How the values were obtained:
Format in all cases: cell-based
[1] = tested on: Type II cells in rat medial septum; experiment: Patch-clamp recording of ACh-evoked responses of medial septal neurons, Type II cells
Experimental: (§1) All procedures involving rats were approved by the University of Florida IACUC and were in accord with the NIH Guide for the Care and Use of Laboratory Animals. Male Sprague Dawley rats (post-natal day 12-25) were anesthetized with Halothane (Halocarbon Laboratories, River Edge N.J.) and swiftly decapitated. Transverse ([…]) whole brain slices were prepared using a vibratome (Pelco, Redding, Calif.) and then placed in a high Mg^2+/low Ca^2+ ice-cold artificial cerebral spinal fluid (ACSF) containing (in mM) 124 NaCl, 2.5 KCl, 1.2 NaH2PO4, 2.5 MgSO4, 10 D-glucose, 1 CaCl2, and 25.9 NaHCO3, saturated with 95% O2-5% CO2. Slices were incubated at 30° C. for 30 minutes and then left at room temperature until they were transferred to a submersion chamber (Warner Instruments, Hamden, Conn.) for recording. During experiments, slices were perfused at a rate of 2 ml/min with normal ACSF containing (in mM) 126 NaCl, 3 KCl, 1.2 NaH2PO4, 1.5 MgSO4, 11 D-glucose, 2.4 CaCl2, 25.9 NaHCO3, and 0.004 atropine sulfate, saturated with 95% 02-5% CO2 at 30° C. Cells were visualized with infrared differential interference contrast microscopy using a Nikon E600FN microscope. Patch-clamp recording pipettes were pulled from borosilicate glass (Sutter Instruments, Novato, Calif.) using a Flaming/Brown micropipette puller (P-97; Sutter Instruments, Novato, Calif.). Recording pipettes were filled with an internal solution of (in mM) 125K-gluconate, 1 KCl, 0.1 CaCl2, 2 MgCl2, 1 EGTA, 2 MgATP, 0.3 Na3GTP, and 10 HEPES (pH adjusted to 7.3 with KOH). The resistance of the recording pipette when filled with the internal solution was 3-5 MΩ. Cells were held at −70 mV, and a −10 in V/10 ms test pulse was used to determine access resistance, input resistance, and whole-cell capacitance. Cells with access resistances >60 MΩ or those requiring holding currents >200 pA were not included in the final analyses. Signals were digitized using an Axon Digidata1322A and sampled at 20 kHz on a Dell computer using Clampex version 8 or 9. Data analysis was done with Clampfit version 8 or 9 (Axon Instruments, Union City, Calif.), Excel 2000 (Microsoft, Seattle, Wash.), and GraphPad/Prism version 4.02 (Graphpad Software, San Diego, Calif.). Data are reported as mean±SEM. Statistical analyses were performed using two-tailed Student's t-test and one-way analysis of variance (ANOVA).
(§2) Single-barrel pipettes were pulled from borosilicate glass with an outer diameter (o.d.) and inner diameter (i.d.) of 1.5 mm and 0.86 mm, respectively (Sutter Instrument, Novato, Calif.). Pipette opening size of the single barrel was typically 2-3 μm. Double-barrel pipettes were pulled from borosilicate theta glass with an o.d. of 1.5 mm; pipette opening size was around 3-4 μm. The application pipette was usually placed within 10-15 μm of the cell soma.
(§3) In experiments in which AQA analogs were bath-applied, for each cell, four ACh baseline-evoked responses were recorded before bath application of the antagonist. ACh-evoked responses were then recorded for 13-22 min in the presence of the AQA analog. Each analog was bath-applied at a final concentration of 1 μm. In some septum experiments, dihydro-β-erythroidine (DHβE) was also bath-applied at a final concentration of 1 μm.
Neurons in rat medial septum vary in their nAChR-mediated responses. Some neurons (Type I cells) have relatively fast transient ACh-evoked responses, while others (Type II cells) have slower ACh-evoked responses (Thinschmidt et al., 2005a).

rat α7 nAChRs = molecular target: T1, rat α7 nAChRs (Rattus norvegicus, UniProt Q05941); experiment: Voltage-clamp recording in Xenopus oocytes expressing rat α7 nAChRs; conditions: for Imax of ACh concentration-response in the presence of antagonist: ACh alone Imax=1; for recovery of responses to ACh alone after co-application: 5 min washout; for effect of voltage on inhibition of α7 receptors: −40 or −80 mV, 60 μM ACh; for inhibition at 1 µM: 1 μM tPyQB
T1 construct: expressed in transfected cells; host or cells: Xenopus laevis oocytes injected with subunit cRNA
T1 sequence (Q05941 23-502): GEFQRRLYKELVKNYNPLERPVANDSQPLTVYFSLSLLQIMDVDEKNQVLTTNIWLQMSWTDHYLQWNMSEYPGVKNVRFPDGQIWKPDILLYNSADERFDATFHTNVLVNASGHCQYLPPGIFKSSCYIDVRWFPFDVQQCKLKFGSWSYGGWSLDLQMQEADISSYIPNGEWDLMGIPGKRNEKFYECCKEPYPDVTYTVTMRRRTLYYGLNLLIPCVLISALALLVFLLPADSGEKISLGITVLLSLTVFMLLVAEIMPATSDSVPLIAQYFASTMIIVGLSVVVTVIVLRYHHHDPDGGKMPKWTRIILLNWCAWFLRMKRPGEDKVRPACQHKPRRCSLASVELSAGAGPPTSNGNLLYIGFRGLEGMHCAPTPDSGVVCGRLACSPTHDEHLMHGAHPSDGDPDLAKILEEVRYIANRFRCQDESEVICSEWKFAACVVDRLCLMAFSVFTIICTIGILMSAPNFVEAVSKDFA
Experimental: (§4) For recombinant nAChR studies, mature (>9 cm) female Xenopus laevis African frogs (Nasco, Ft. Atkinson, Wis.) were used as a source of oocytes. Prior to surgery, frogs were anesthetized by placing the animal in a 1.5 g/l solution of MS222 (3-aminobenzoic acid ethyl ester) for 30 min. Oocytes were removed from an incision made in the abdomen. All procedures involving frogs were approved by the University of Florida Institutional Animal Care and Use Committee (IACUC).
(§5) Stage 5 oocytes were then isolated and injected with 50 n1 (5-20 ng) each of the appropriate subunit cRNAs. The rat neuronal nAChR clones were obtained from Dr. Jim Boulter (UCLA, Los Angeles, Calif.). After linearization and purification of cloned cDNAs, RNA transcripts were prepared in vitro using the appropriate mMessage mMachine kit from Ambion (Austin, Tex.).
(§6) Experiments were conducted using OpusXpress 6000A (Molecular Devices, Union City Calif.). […] Net charge values were used to report inhibitory effects. […] Means and standard errors (SEM) were calculated from the normalized responses of at least four oocytes for each experimental concentration. Concentration-response data were fit to the Hill equation assuming negative Hill slopes.

rat α4β2 nAChRs = molecular target: T2, rat α4β2 nAChRs (Rattus norvegicus, UniProt P09483+P12390); experiment: Voltage-clamp recording in Xenopus oocytes expressing rat α4β2 nAChRs; conditions: for recovery of responses to ACh alone after co-application: 5 min washout
T2 construct: expressed in transfected cells; host or cells: Xenopus laevis oocytes injected with subunit cRNAs
T2 sequence (P09483 31-630): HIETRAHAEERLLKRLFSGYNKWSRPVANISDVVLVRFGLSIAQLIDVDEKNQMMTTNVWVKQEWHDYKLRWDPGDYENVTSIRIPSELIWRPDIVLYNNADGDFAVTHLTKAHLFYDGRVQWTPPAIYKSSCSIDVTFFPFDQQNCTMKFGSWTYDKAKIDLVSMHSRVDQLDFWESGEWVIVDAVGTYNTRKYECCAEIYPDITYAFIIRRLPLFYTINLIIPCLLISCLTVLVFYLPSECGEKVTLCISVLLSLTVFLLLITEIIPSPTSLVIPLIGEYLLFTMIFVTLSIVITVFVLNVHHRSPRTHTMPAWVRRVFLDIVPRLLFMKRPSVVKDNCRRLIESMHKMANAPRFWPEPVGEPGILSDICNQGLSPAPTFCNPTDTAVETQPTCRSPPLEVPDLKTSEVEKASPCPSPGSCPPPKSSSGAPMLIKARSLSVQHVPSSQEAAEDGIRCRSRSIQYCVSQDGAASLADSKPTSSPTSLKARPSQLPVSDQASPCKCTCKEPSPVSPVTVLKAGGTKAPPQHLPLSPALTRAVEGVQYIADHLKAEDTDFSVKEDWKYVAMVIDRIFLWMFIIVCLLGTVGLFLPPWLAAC
T2 sequence (P12390 25-500): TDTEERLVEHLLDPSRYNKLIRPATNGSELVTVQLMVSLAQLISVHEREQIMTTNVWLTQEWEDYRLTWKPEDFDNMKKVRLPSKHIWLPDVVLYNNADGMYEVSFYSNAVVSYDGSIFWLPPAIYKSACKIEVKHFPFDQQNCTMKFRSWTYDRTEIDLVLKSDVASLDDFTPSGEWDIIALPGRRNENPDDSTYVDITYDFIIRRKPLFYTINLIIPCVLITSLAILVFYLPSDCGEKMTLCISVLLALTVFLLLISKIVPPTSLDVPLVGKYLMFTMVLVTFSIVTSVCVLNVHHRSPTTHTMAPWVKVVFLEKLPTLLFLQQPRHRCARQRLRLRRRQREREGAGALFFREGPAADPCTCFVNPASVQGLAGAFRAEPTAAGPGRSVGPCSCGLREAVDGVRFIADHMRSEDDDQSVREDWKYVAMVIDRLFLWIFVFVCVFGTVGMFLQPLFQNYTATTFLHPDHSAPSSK
Experimental: as §4, §5, §6

rat α3β4 nAChRs = molecular target: T3, rat α3β4 nAChRs (Rattus norvegicus, UniProt P04757+P12392); experiment: Voltage-clamp recording in Xenopus oocytes expressing rat α3β4 nAChRs; conditions: for recovery of responses to ACh alone after co-application: 5 min washout
T3 construct: expressed in transfected cells; host or cells: Xenopus laevis oocytes injected with subunit cRNAs
T3 sequence (P04757 26-499): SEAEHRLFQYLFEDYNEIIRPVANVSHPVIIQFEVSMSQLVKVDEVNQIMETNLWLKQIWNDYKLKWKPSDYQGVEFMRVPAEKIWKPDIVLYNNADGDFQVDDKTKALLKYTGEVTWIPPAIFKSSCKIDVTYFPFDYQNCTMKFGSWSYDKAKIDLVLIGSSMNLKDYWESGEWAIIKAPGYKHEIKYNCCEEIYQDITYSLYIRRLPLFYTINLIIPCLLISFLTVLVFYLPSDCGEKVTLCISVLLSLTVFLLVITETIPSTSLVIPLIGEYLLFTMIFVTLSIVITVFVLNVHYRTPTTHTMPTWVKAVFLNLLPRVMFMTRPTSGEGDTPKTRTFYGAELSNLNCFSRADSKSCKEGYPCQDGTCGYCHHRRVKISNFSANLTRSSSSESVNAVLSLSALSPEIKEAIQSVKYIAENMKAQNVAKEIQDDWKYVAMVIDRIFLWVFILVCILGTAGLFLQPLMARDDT
T3 sequence (P12392 21-495): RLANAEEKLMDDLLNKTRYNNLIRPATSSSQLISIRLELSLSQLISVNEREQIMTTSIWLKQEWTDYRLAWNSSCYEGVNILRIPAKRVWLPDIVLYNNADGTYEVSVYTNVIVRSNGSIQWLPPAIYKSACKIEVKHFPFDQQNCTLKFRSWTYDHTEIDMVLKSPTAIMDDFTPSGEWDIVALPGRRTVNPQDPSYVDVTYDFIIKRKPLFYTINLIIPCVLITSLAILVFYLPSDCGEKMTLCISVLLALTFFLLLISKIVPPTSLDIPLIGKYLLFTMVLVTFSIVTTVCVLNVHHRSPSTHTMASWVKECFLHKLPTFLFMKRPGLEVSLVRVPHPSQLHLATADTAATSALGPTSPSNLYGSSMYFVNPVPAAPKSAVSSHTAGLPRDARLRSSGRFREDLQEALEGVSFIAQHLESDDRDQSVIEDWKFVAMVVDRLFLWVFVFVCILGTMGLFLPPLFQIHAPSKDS
Experimental: as §4, §5, §6

[2] = molecular target: T4, native α7 receptors on rat hippocampal interneurons (Rattus norvegicus, UniProt Q05941); experiment: Patch-clamp recording of ACh-evoked responses of hippocampal interneurons in brain slices; conditions: 1 μM bath-applied; for reduction of ACh-evoked responses: 1 mM ACh
T4 construct: Native α7 Receptors on Rat Hippocampal Interneurons; from tissue; host or cells: interneurons of CA1 stratum radiatum in fresh rat brain slices
T4 sequence (Q05941 23-502): as the sequence (Q05941 23-502) above
Experimental: as §1, §2, §3
Stable ACh-evoked responses were obtained from hippocampal interneurons in fresh brain slices and then applied 1 μM tPyQB, tPy2PiB, or tkP3BzPB to the bath. […]

[3] = tested on: Type I cells in rat medial septum; experiment: Patch-clamp recording of ACh-evoked responses of medial septal neurons, Type I cells
Experimental: as §1
Single-barrel pipettes were pulled from borosilicate glass with an outer diameter (o.d.) and inner diameter (i.d.) of 1.5 mm and 0.86 mm, respectively (Sutter Instrument, Novato, Calif.). […]
In experiments in which AQA analogs were bath-applied, for each cell, four ACh baseline-evoked responses were recorded before bath application of the antagonist. ACh-evoked responses were then recorded for 13-22 min in the presence of the AQA analog. […]

[4] = 1 mM ACh+300 μM tkP3BzPB pressure co-application

## CO[C@H]1CC=C2CCN3CCC4=C(CC(=O)OC4)[C@]23C1 [DHβE, dihydro-β-erythroidine, reference compound]
[1]; 1 μM DHβE bath-applied
  blockade of residual ACh-evoked responses following tkP3BzPB bath application: largely sensitive to DHβE blockade

## Cc1cccc[n+]1CCCC#Cc1cc(C#CCCC[n+]2ccccc2C)cc(C#CCCC[n+]2ccccc2C)c1 [tPy2PiB, 1,3,5,-tri-{5-[1-(2-picolinium)]-pent-1-yn-1-yl}benzene tribromide]
Rat α7 nAChRs; 3 μM tPy2PiB, holding potential −40 mV
  inhibition of net charge responses: no significant inhibition
Rat α7 nAChRs; 3 μM tPy2PiB, net charge
  Imax of ACh concentration-response in the presence of antagonist: 0.84±0.02
Rat α7 nAChRs
  recovery of responses to ACh alone after co-application: recovered fully
  effect of voltage on inhibition of α7 receptors: significant effect of voltage
Rat α7 nAChRs; read-out: IC50 values, α7
  IC50: 6.3 ± 0.6 µM
Rat α7 nAChRs; read-out: inhibition of net charge responses, 3 μM tPy2PiB, holding potential −80 mV
  inhibition at 3 µM: 43 ± 3%
Rat α4β2 nAChRs
  IC50: 103 ± 25 µM
  recovery of responses to ACh alone after co-application: recovered fully
Rat α3β4 nAChRs
  IC50: 10 ± 1.4 µM
  recovery of responses to ACh alone after co-application: recovered fully
[2]
  reduction of ACh-evoked responses: no significant reduction

## C(#Cc1cc(C#CCCC[n+]2cccc3ccccc32)cc(C#CCCC[n+]2cccc3ccccc32)c1)CCC[n+]1cccc2ccccc21 [tPyQB, 1,3,5-tri-[5-(1-quinolinum)-pent-1-yn-1-yl]-benzene tribromide]
Rat α7 nAChRs; 300 nM tPyQB, net charge
  Imax of ACh concentration-response in the presence of antagonist: 0.40±0.01
Rat α7 nAChRs; 1 μM
  inhibition of 60 μM ACh-evoked responses: completely inhibit
Rat α7 nAChRs; cells held at −40 mV
  inhibition at 1 µM: 83 ± 2%
Rat α7 nAChRs; −80 mV
  inhibition at 1 µM: 97.7 ± 0.1%
Rat α7 nAChRs
  recovery of responses to ACh alone after co-application: recovered fully
  effect of voltage on inhibition of α7 receptors: significant effect of voltage
Rat α7 nAChRs; read-out: IC50 values, α7
  IC50: 0.13 ± 0.02 µM
Rat α4β2 nAChRs
  IC50: 4.1 ± 1 µM
  recovery of responses to ACh alone after co-application: recovered fully
Rat α3β4 nAChRs
  IC50: 1 ± 0.1 µM
  recovery of responses to ACh alone after co-application: recovered fully
[2]
  reduction of ACh-evoked responses: effectively reduced

## c1ccc(Cc2ccc[n+](CCCCCc3cc(CCCCC[n+]4cccc(Cc5ccccc5)c4)c(CCCCC[n+]4cccc(Cc5ccccc5)c4)cc3CCCCC[n+]3cccc(Cc4ccccc4)c3)c2)cc1 [tkP3BzPB, 1,2,4,5-tetra-{5-[1-(3-benzyl)pyridinium]pent-1-yl}benzenetetrabromide]
Rat α7 nAChRs; 100 nM, typical co-application protocol
  inhibition of 60 μM ACh-evoked responses: virtually no inhibition
Rat α7 nAChRs; 3 μM for 20 s with or without 60 μM ACh, 5 minute washout
  use-dependence of persistent inhibition: not use-dependent
Rat α7 nAChRs
  recovery of responses to ACh alone after co-application: decreasing recovery with increasing tkP3BzPB concentrations
  effect of voltage on inhibition of α7 receptors: no significant difference
Rat α7 nAChRs; after 1 μM co-applied with 60 μM ACh
  recovery time constant: 26.6 ± 0.8 min
Rat α7 nAChRs; after 5 minutes wash following application at increasing concentrations, read-out: IC50 estimated for recovery data
  IC50: 1.9 ± 0.7 µM
Rat α7 nAChRs; after application of 3 μM alone, repeated applications of 60 μM ACh
  time constant of recovery: 76 ± 3 min
Rat α7 nAChRs; read-out: inhibition of the ACh-evoked responses
  inhibition at 0.1 µM: ~80%
Rat α7 nAChRs; simple co-application with 60 μM ACh, net charge, read-out: IC50 values, α7
  IC50: 1 ± 0.1 µM
Rat α4β2 nAChRs
  IC50: 48 ± 11 µM
  recovery of responses to ACh alone after co-application: no significant residual inhibition
Rat α3β4 nAChRs
  IC50: 9.2 ± 1.2 µM
  recovery of responses to ACh alone after co-application: no significant residual inhibition
[2]
  reduction of ACh-evoked responses: effectively reduced
[2]; 1 mM ACh pressure application
  baseline net charge response remaining after bath application: 0.4±0.7%
  baseline peak response remaining after bath application: 4±0.2%
[3]; 1 μM bath-applied
  initial evoked response remaining (peak amplitude) after bath application: 12±0.6%
  net-charge evoked response after bath application: fully abolished
[3]; [4]
  average baseline net charge response after co-application: 68±9%
  average baseline peak response after co-application: 72±6%
[1]; 1 μM bath-applied
  baseline response (peak amplitude) at the end of the application: 59±1%
  net-charge evoked response, of the baseline response, after bath application: 79±2%
[1]; [4]
  average baseline net charge response after co-application: 93±10%
  average baseline peak response after co-application: 86±5%
